Measured values from patent US20260224592A1, “COMPOSITIONS AND METHODS FOR TREATING SEVERE […]” (SHENZHEN HIGHTIDE BIOPHARMACEUTICAL LTD., priority 2023, published 2026).

Key:
[1] = test system: high fat diet induced hyperlipidemia/NAFLD hamster model; assay: Study B: hyperlipidemia/NAFLD hamster model, BUDCA versus UDCA or BBR-Cl, 6 weeks treatment; assay type: in vivo, golden hamster; conditions: for Serum lipids HDL-c / Serum lipids LDL-c / Serum lipids TC / Serum lipids TG: 6 weeks daily oral, equimolar high doses: 200 mg/kg BUDCA; for Serum lipids HDL-c / Serum lipids LDL-c / Serum lipids TC / Serum lipids TG / Liver TC / Liver TG / Proportion of oil red O staining positive area / Steatosis Score of HE staining: 107.8 mg/kg UDCA, 102.2 mg/kg BBR-Cl, mean ± SEM; for Liver TC / Liver TG / Proportion of oil red O staining positive area / Steatosis Score of HE staining: 200 mg/kg BUDCA
Protocol: Study B was conducted using the same hamster model as described in Study A to evaluate the efficacy of BUDCA as well as to compare the effects of BUDCA with equivalent doses of either UDCA or BBR-Cl on their own. The model was induced with the same method as indicated in Study A. After the 2-week induction period, hamsters were randomized into treatment groups and continued the high fat diet for an additional 6-week period, concurrent with the daily oral administration of various doses of BUDCA (Low dose: […]; Medium dose: 100 mg/mL; […]), BBR-Cl on its own (Low dose: 51.1 mg/mL; […]), UDCA on its own (Low dose: 53.9 mg/mL; […]), or a 1:1 physical mixture of BBR-Cl and UDCA equivalent to a lower dose of BUDCA (105.0 mg/mL). A model control group continued the high fat diet and normal control group fed the standard diet were both administered the vehicle 0.5% carboxymethyl cellulose sodium (CMC-Na) solution. All animals were sacrificed for terminal evaluations at the end of the 6-week dosing period.
Endpoints evaluated included serum lipids (TC, TG, LDL-C, HDL-C), liver lipid content (TC and TG), liver injury (ALT, AST, total bile acids (TBA) and total bilirubin (TBIL)), liver weight (expressed relative to body weight as liver index), macroscopic observation and histopathology evaluation of the livers. Histopathology endpoints included pathologist observation, as well as numerical comparison via the nonalcoholic fatty liver disease activity score (NAS) and a fibrosis severity score.
Terminal endpoints in model control animals also confirmed increased liver weight and histopathology of the liver as evidenced by steatosis, hepatocytes swelling, punctate necrosis, inflammatory cell infiltration and local fibrosis. Therefore, the model was not only able to replicate key characteristics of the NAFLD disease spectrum in humans, but also hyperlipidemia.

[2] = test system: high fat diet induced hyperlipidemia/NAFLD hamster model; assay: Study A: high-fat/high-cholesterol diet induced hyperlipidemia/NAFLD hamster model, 7 weeks treatment; assay type: in vivo, Male Golden Syrian hamsters; conditions: for HDL-c (serum) / LDL-c (serum) / PCSK9 (serum) / TC (serum) / TG (serum) / AI value (atherosclerosis index): mean ± SEM; for AI value (atherosclerosis index): AI = (TC − HDL-c)/HDL-c
Protocol: Various pre-clinical and clinical studies were performed to evaluate safety and efficacy of BUDCA. Primary and secondary pharmacodynamics studies were performed. Specific to nonclinical proof of concept for BUDCA in SHTG, the efficacy of BUDCA on hyperlipidemia/NAFLD was evaluated in two studies (Study A and Study B) using a high fat diet induced hyperlipidemia/NAFLD hamster model. Dietary induced changes in hamsters can be considered a valid model for dyslipidemia.
Male Golden Syrian hamsters were fed with a high-fat/high-cholesterol diet which contained 1.25% cholesterol, 20.06% grease (2.79% soybean oil, 17.27% cocoa butter) to establish the hyperlipidemia/NAFLD model. After 2 weeks of high-fat/high-cholesterol diet inducement, 24 hamsters with fasting TC level 17.96±1.70 mmol/L were selected and divided into 3 groups of 8 hamsters each (model group G1, 50 mg/kg/day BUDCA group G2, and 200 mg/kg/day BUDCA group G3). Eight hamsters comprising the normal control were fed with a normal chow diet.
The normal and Model control groups received vehicle (10 mL/kg 0.5% gum tragacanth solution), while the two BUDCA treatment groups received BUDCA, via intragastric administration for 7 weeks prior to sacrifice.
During the treatment period, blood was collected at weeks 1, 3, 5, and 7, for biochemical analysis including serum TC, TG, HDL-c, LDL-c, and liver enzymes. At the end of the study, animals were sacrificed for liver macroscopic observation and liver tissues were collected for histopathological evaluations and liver lipid contents.

[3] = test system: overweight or obese adults with hypercholesterolemia; assay: Study C: Phase 1b/2a study in overweight or obese adults with hypercholesterolemia, 28 days; assay type: in vivo, human; conditions: BUDCA 250, 500 or 1000 mg BID, maximum reductions relative to placebo after 14 days
Protocol: In a Phase 1b/2a study, 50 overweight or obese adults with hypercholesterolemia were enrolled and treated with BUDCA for 28 days. The primary objective was to evaluate safety and tolerability of BUDCA. Given that the subjects enrolled in this study were obese with a history of hypercholesteremia, the focus of the efficacy and PD endpoints was lipid metabolism. Key entry criteria included BMI 2 and LDL-C, BUDCA 250 mg BID (N=12), BUDCA 500 mg BID (N=12), or BUDCA 1000 mg BID (N=12).
While all subjects had hypercholesteremia at baseline, TG levels generally ranged from normal to mild HTG (three subjects from each of placebo, BUDCA 500 mg BID, and BUDCA 1000 mg BID had TG values >200 mg/dL) and HDL-C levels were generally in the normal range.

[4] = test system: adults with NASH and T2DM; assay: Study D: randomized, double-blind, placebo-controlled Phase 2 study in adults with NASH and T2DM, 18 weeks; assay type: in vivo, human
Protocol: Study D was a randomized, double-blind, placebo-controlled Phase 2 study in adults with NASH and T2DM. The primary objective of this study was to evaluate the change from baseline in liver fat content as assessed by MRI-PDFF, but also evaluated changes in key cardiometabolic parameters, including lipids. Key entry criteria included the clinical diagnosis of NASH and T2DM and BMI >25.0 kg/m2. Subjects were randomized and treated with placebo (N=33), BUDCA 500 mg BID (N=33), or BUDCA 1000 mg BID (N=34) for 18 weeks (Harrison 2021).
Demographic characteristics were generally well balanced among treatment groups. The median age overall was 57 years (range: 26 to 75 years), and there were 72% females and 28% males. Most subjects were White (91%) and not Hispanic or Latino (62%). Mean baseline weight and BMI were similar across treatment groups. On average, LDL-C was elevated and near the upper limit of the normal range and TGs were elevated above the normal. Baseline values for HbA1c, ALT, GGT, liver fat content, and cT1 were similar across treatment groups.
Study D evaluated the effects of BUDCA on lipids as secondary efficacy endpoints. On average, subjects had near-normal LDL-C at baseline with borderline-high levels of TG. While the average values were generally similar across treatment groups, it should be noted that LDL-C was lower in the BUDCA 500 mg BID treatment group while TGs were lower in the BUDCA 1000 mg BID treatment group (Table 6). […] Reductions in TGs with the […] dose were statistically significant compared with placebo. Reduced TG levels were paralleled with a reduction in LDL-C after 18 weeks of treatment with BUDCA 1000 mg BID (−13%), but not with BUDCA 500 mg BID (3%) or with placebo (0%).

subjects with HTG = assay: Pooled analysis of Study C and Study D in subjects with HTG (baseline TGs above 200 mg/dL); assay type: in vivo, human; conditions: for placebo-corrected median percent change from baseline in TGs: end of treatment
Protocol: Efficacy was also tested in two clinical studies that established merits for further clinical study in patients with SHTG: Study C was conducted in adults with hypercholesterolemia and […] and T2DM. A pooled analysis was conducted based on these two studies specifically evaluating the data from subjects who had HTG at baseline (TG 200 mg/dL).
To further investigate the potential of BUDCA for lowering TGs in patients with elevated TGs, a pooled analysis across studies Study C and Study D was conducted focusing on the subjects with baseline TGs above 200 mg/dL (HTG) (Table 6). The analysis pooled the baseline and end of treatment timepoints for this evaluation as the two studies had different durations (4 weeks vs 18 weeks).

[5] = 50 mg/kg/day BUDCA intragastric, 7 weeks
[6] = 200 mg/kg/day BUDCA intragastric, 7 weeks
[7] = both doses of BUDCA, HTG subgroup

COc1ccc2cc3[n+](cc2c1OC)CCc1cc2c(cc1-3)OCO2.[Cl-] [BBR-Cl]
Serum lipids HDL-c [1]: 5.24 ± 0.30 mmol/L | Serum lipids LDL-c [1]: 6.53 ± 1.10 mmol/L | Serum lipids TC [1]: 14.86 ± 1.23 mmol/L | Serum lipids TG [1]: 3.72 ± 0.37 mmol/L | Liver TC ([1]; 6 weeks): 29.27 ± 4.47 mg/g | Liver TG ([1]; 6 weeks): 19.18 ± 2.24 mg/g | Proportion of oil red O staining positive area ([1]; 6 weeks): 18.97 ± 2.43 % | Steatosis Score of HE staining ([1]; 6 weeks): 2.75 ± 0.16

COc1ccc2cc3[n+](cc2c1OC)CCc1cc2c(cc1-3)OCO2.C[C@H](CCC(=O)[O-])[C@H]1CC[C@H]2[C@@H]3[C@@H](O)C[C@@H]4C[C@H](O)CC[C@]4(C)[C@H]3CC[C@]12C [BUDCA, Berberine Ursodeoxycholate]
HDL-c (serum) [2, 5]: 3.42 ± 0.28 mmol/L | LDL-c (serum) [2, 5]: 2.95 ± 1.72 mmol/L | PCSK9 (serum) [2, 5]: 124.9 ± 16.8 pg/mL | TC (serum) [2, 5]: 9.78 ± 2.58 mmol/L | TG (serum) [2, 5]: 3.88 ± 1.21 mmol/L | Liver TC ([2]; 50 mg/kg/day BUDCA, 7 weeks): 14.62 ± 4.89 mg/g | Liver TG ([2]; 50 mg/kg/day BUDCA, 7 weeks): 5.40 ± 2.64 mg/g | AI value (atherosclerosis index) ([2]; 50 mg/kg/day BUDCA, 7 weeks): 1.88 ± 0.83 | HDL-c (serum) [2, 6]: 2.53 ± 0.29 mmol/L | LDL-c (serum) [2, 6]: 1.23 ± 0.28 mmol/L | PCSK9 (serum) [2, 6]: 179.0 ± 30.9 pg/mL | TC (serum) [2, 6]: 4.95 ± 0.84 mmol/L | TG (serum) [2, 6]: 1.90 ± 0.66 mmol/L | Liver TC ([2]; 200 mg/kg/day BUDCA, 7 weeks): 3.82 ± 1.78 mg/g | Liver TG ([2]; 200 mg/kg/day BUDCA, 7 weeks): 5.61 ± 1.98 mg/g | AI value (atherosclerosis index) ([2]; 200 mg/kg/day BUDCA, 7 weeks): 0.95 ± 0.19 | serum PCSK9 levels compared to the Model control group ([2]; 7-weeks of BUDCA treatment, P<0.05): significantly reduced | serum TG, TC, LDL-c levels, and AI compared to the model group ([2]; BUDCA 50 and 200 mg/kg/day, 7 weeks, P<0.01, dose-dependent): significantly reduced | liver contents of TG and TC compared to the model group ([2]; both doses of BUDCA, 7 weeks, P<0.01): significantly decreased | Serum lipids HDL-c [1]: 4.25 ± 0.40 mmol/L | Serum lipids LDL-c [1]: 1.26 ± 0.15 mmol/L | Serum lipids TC [1]: 7.03 ± 0.73 mmol/L | Serum lipids TG [1]: 2.06 ± 0.39 mmol/L | Liver TC ([1]; 6 weeks): 4.59 ± 0.84 mg/g | Liver TG ([1]; 6 weeks): 3.92 ± 0.50 mg/g | Proportion of oil red O staining positive area ([1]; 6 weeks): 1.18 ± 0.69 % | Steatosis Score of HE staining ([1]; 6 weeks): 1.00 ± 0.38 | serum TC and TG, LDL-C, ALT, AST, TBA, TBIL, liver weight, liver TC and TG, NAS score, and fibrosis (score and % area) ([1]; relative to model control animals, low, medium and high dose BUDCA, 6 weeks): reduced all the following parameters in a dose dependent manner | beneficial effects on most parameters, including serum lipids and liver lipid deposition, compared with the individual moieties ([1]; versus equivalent doses of UDCA or BBR administered alone): greater than those achieved with either UDCA or BBR when administered alone | serum lipid levels [3]: decreased in a dose-dependent fashion | HbA1c change from baseline ([4]; 18 weeks of BUDCA treatment (500 and 1000 mg BID), in contrast to increase with placebo): Significant dose dependent reductions | LDL-C, change from baseline to week 18 ([4]; BUDCA 500 mg BID, 18 weeks): 3% | TG levels, change from baseline to week 18 ([4]; BUDCA 500 mg BID, 18 weeks): −9% | mean change in fasting plasma glucose ([4]; BUDCA 500 mg BID, 18 weeks): -18 mg/dL | LDL-C, change from baseline to week 18 ([4]; BUDCA 1000 mg BID, 18 weeks): −13% | TG levels, change from baseline to week 18 ([4]; BUDCA 1000 mg BID, 18 weeks): −11% | mean change in fasting plasma glucose ([4]; BUDCA 1000 mg BID, 18 weeks): -22 mg/dL | change from baseline in body weight ([4]; BUDCA 1000 mg BID, 18 weeks, p<0.05 vs placebo): -3.5 kg | placebo-corrected median percent change from baseline in TGs (subjects with HTG; BUDCA 500 mg BID, 95% CI (−52.63, 17.93)): −12.3% | HDL-C at the end of treatment (subjects with HTG; BUDCA 1000 mg BID, HTG population): increase in HDL-C | placebo-corrected median percent change from baseline in TGs (subjects with HTG; BUDCA 1000 mg BID, 95% CI (−55.57, 16.61)): −17.7% | change from baseline to end of treatment in body weight (subjects with HTG; BUDCA 1000 mg BID, subjects with HTG, based solely on one of the two studies): -4.6 kg | LDL-C at the end of treatment (subjects with HTG; both doses of BUDCA (500 and 1000 mg BID), HTG population): decrease in LDL-C | HbA1c (subjects with HTG; [7]): no worsening of HbA1c | fasting plasma glucose (subjects with HTG; [7]): decrease in fasting plasma glucose

C[C@H](CCC(=O)O)[C@H]1CC[C@H]2[C@@H]3[C@@H](O)C[C@@H]4C[C@H](O)CC[C@]4(C)[C@H]3CC[C@]12C [UDCA]
Serum lipids HDL-c [1]: 4.81 ± 0.15 mmol/L | Serum lipids LDL-c [1]: 3.83 ± 0.47 mmol/L | Serum lipids TC [1]: 10.13 ± 0.73 mmol/L | Serum lipids TG [1]: 2.17 ± 0.18 mmol/L | Liver TC ([1]; 6 weeks): 17.95 ± 4.04 mg/g | Liver TG ([1]; 6 weeks): 11.24 ± 2.69 mg/g | Proportion of oil red O staining positive area ([1]; 6 weeks): 11.72 ± 4.65 % | Steatosis Score of HE staining ([1]; 6 weeks): 2.13 ± 0.35
